According to ChEMBL document CHEMBL3046385, “Synthesis and bioactivity of novel 3-(1-hydroxyethylidene)-5-substituted-pyrrolidine-2,4-dione derivatives” (Chin Chem Lett, 2012):
Values after ≈ are worked out from the molar mass of the structure shown.

What was measured:
[1] = test system: Echinochloa crus-galli; experiment: Herbicidal activity against Echinochloa crus-galli (barnyard grass) assessed as stalk inhibition; assay type: functional, organism-based
[2] = test system: Echinochloa crus-galli; experiment: Herbicidal activity against Echinochloa crus-galli (barnyard grass) assessed as root inhibition at 100 mg/l; assay type: functional
[3] = test system: Echinochloa crus-galli; experiment: Herbicidal activity against Echinochloa crus-galli (barnyard grass) assessed as stalk inhibition at 100 mg/l; assay type: functional
[4] = test system: Brassica rapa subsp. oleifera; experiment: Herbicidal activity against Brassica rapa subsp. oleifera assessed as root inhibition at 100 mg/l; assay type: functional
[5] = test system: Brassica rapa subsp. oleifera; experiment: Herbicidal activity against Brassica rapa subsp. oleifera assessed as root inhibition; assay type: functional, organism-based

## CCCCCCC1NC(=O)/C(=C(/C)O)C1=O (centres undefined)
[1]
  EC50: 72.7 µg/mL (≈ 323 µM)
[2]
  inhibition at 100 µg/mL: 47.8%
[3]
  inhibition at 100 µg/mL: 66.9%
[4]
  inhibition at 100 µg/mL: 43.1%

## C/C(O)=C1/C(=O)NC(CC(=O)c2ccccc2)C1=O (centres undefined)
[2]
  inhibition at 100 µg/mL: 47.9%
[3]
  inhibition at 100 µg/mL: 36.4%
[4]
  inhibition at 100 µg/mL: 66.9%

## CCCCC1NC(=O)/C(=C(/C)O)C1=O (centres undefined)
[2]
  inhibition at 100 µg/mL: 38.5%
[3]
  inhibition at 100 µg/mL: 32.3%
[4]
  inhibition at 100 µg/mL: 46.3%

## C/C(O)=C1/C(=O)NC(C/C=C/c2ccccc2)C1=O (centres undefined)
[5]
  EC50: 39.2 µg/mL (≈ 152 µM)
[2]
  inhibition at 100 µg/mL: 54%
[3]
  inhibition at 100 µg/mL: 42.5%
[4]
  inhibition at 100 µg/mL: 90.4%

## C/C(O)=C1/C(=O)NC(Cc2ccc(Cl)cc2Cl)C1=O (centres undefined)
[2]
  inhibition at 100 µg/mL: 31.6%
[3]
  inhibition at 100 µg/mL: 19.1%
[4]
  inhibition at 100 µg/mL: 59.3%

## C/C(O)=C1/C(=O)NC(Cc2ccccc2Cl)C1=O (centres undefined)
[2]
  inhibition at 100 µg/mL: 37.3%
[3]
  inhibition at 100 µg/mL: 35.7%
[4]
  inhibition at 100 µg/mL: 41.8%

## COc1ccc(CC2NC(=O)/C(=C(/C)O)C2=O)cc1 (centres undefined)
[2]
  inhibition at 100 µg/mL: 32.8%
[3]
  inhibition at 100 µg/mL: 41.2%
[4]
  inhibition at 100 µg/mL: 62.9%

## COc1ccc(C(=O)CC2NC(=O)/C(=C(/C)O)C2=O)cc1 (centres undefined)
[1]
  EC50: 94.4 µg/mL (≈ 326 µM)
[2]
  inhibition at 100 µg/mL: 61.5%
[3]
  inhibition at 100 µg/mL: 62.6%
[4]
  inhibition at 100 µg/mL: 45.9%

## C/C(O)=C1/C(=O)NC(Cc2ccc(Cl)cc2)C1=O (centres undefined)
[5]
  EC50: 25.5 µg/mL (≈ 96 µM)
[2]
  inhibition at 100 µg/mL: 49.6%
[3]
  inhibition at 100 µg/mL: 37.8%
[4]
  inhibition at 100 µg/mL: 89.7%

## C/C(O)=C1/C(=O)NC(Cc2ccc([N+](=O)[O-])cc2)C1=O (centres undefined)
[2]
  inhibition at 100 µg/mL: 64.3%
[3]
  inhibition at 100 µg/mL: 41.6%
[4]
  inhibition at 100 µg/mL: 45.7%
